Data as given in BindingDB's records for doi:10.1007/BF00173012 (Sandoz Pharma, 1994).
pKi: −log10 of the molar value. *1 amine or outer side, *2 acyl side, *3 side chain or, on linkers, in order; H or OH if unused. Where a SMILES comes first, the peptide text is derived from it. Bridges are numbered along the chain shown (N, C = ends). [ ]: non-standard residue; d: D form. Phe(4-Cl) = N[C@@H](Cc1ccc(Cl)cc1)C(=O)O; d2Nal = N[C@H](Cc1ccc2ccccc2c1)C(=O)O; X1 = O=C(C(N[*:1])S[*:3])[*:2]; Mpa = O=C(O)CCS

Tests used:
[1] = target: Somatostatin receptor type 2 (Mus musculus, UniProt P30875)
Sequence of Somatostatin receptor type 2 (P30875 whole entry): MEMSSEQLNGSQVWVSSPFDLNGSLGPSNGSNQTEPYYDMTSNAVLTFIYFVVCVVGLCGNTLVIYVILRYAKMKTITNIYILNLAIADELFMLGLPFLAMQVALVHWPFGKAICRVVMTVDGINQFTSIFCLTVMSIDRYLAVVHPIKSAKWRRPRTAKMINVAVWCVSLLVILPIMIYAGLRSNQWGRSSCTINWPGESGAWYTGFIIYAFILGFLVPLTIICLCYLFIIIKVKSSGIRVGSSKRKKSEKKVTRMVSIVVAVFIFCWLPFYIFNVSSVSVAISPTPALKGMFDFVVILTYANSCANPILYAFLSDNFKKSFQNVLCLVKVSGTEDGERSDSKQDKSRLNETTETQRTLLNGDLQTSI

[2] = target: Somatostatin receptor type 3 (Mus musculus, UniProt P30935)
Sequence of Somatostatin receptor type 3 (P30935 whole entry): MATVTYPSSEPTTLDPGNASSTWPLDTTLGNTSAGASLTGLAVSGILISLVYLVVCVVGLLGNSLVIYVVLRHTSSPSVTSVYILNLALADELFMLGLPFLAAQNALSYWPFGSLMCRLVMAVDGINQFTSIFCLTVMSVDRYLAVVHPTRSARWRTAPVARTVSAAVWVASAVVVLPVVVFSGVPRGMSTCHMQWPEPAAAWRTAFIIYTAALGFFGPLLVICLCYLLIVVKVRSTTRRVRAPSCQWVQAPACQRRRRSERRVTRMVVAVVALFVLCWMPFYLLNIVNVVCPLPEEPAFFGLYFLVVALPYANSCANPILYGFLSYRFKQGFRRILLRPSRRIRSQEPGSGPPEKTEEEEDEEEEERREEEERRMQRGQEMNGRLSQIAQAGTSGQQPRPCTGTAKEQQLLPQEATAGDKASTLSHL

[3] = target: Somatostatin receptor type 4 (Mus musculus, UniProt P49660)
Sequence of Somatostatin receptor type 4 (P49660 whole entry): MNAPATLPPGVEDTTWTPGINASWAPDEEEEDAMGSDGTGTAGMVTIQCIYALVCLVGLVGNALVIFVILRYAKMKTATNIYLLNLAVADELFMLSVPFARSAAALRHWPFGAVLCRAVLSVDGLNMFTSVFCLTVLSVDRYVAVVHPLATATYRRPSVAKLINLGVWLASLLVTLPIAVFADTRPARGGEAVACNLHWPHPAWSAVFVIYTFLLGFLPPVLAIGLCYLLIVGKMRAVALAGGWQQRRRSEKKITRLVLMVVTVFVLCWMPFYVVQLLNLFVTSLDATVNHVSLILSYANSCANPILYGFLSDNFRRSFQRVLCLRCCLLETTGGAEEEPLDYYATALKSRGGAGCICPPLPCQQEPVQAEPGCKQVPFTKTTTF

[4] = target: T1, Somatostatin receptor type 5 (Rattus norvegicus, UniProt P30938)
T1 sequence (P30938 whole entry): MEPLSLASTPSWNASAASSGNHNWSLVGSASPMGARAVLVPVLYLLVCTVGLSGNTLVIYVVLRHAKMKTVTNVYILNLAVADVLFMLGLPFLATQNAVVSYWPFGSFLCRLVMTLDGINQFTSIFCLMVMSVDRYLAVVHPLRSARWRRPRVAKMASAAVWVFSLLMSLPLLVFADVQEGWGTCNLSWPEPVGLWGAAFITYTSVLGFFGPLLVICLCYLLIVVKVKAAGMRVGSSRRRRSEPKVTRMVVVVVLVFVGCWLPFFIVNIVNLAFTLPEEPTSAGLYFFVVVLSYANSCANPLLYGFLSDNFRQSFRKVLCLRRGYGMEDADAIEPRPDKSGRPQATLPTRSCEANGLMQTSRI

[5] = target: Somatostatin receptor type 1 (Homo sapiens, UniProt P30872)
Sequence of Somatostatin receptor type 1 (P30872 whole entry): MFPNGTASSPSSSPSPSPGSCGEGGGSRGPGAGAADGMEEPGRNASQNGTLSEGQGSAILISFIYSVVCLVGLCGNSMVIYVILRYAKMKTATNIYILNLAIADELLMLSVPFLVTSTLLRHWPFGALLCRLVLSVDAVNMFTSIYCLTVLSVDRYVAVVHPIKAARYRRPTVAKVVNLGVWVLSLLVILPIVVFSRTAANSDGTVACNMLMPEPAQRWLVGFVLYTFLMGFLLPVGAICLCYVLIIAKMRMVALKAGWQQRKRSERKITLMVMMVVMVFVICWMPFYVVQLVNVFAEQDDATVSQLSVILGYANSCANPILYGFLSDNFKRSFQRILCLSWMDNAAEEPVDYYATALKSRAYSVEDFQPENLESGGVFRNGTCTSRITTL

pKi [1] | pKi [2] | pKi [3] | pKi [4] | pKi [5] | SMILES
10.00 | 7.64 | 6.77 |  |  | CC(C)[C@@H]1NC(=O)[C@H](CCCCN)NC(=O)[C@@H](Cc2c[nH]c3ccccc23)NC(=O)[C@H](Cc2ccc(O)cc2)NC(=O)[C@@H](NC(=O)[C@H](N)Cc2ccccc2)CSSC[C@@H](C(=O)N[C@@H](Cc2c[nH]c3ccccc23)C(N)=O)NC1=O [CAS_71306] (H-[dF]CY[dW]KVCW-NH2; disulfide 2-7)
6.45 | 6.61 | 6.44 | 8.41 |  | CC(C)[C@@H]1NC(=O)[C@H](CCCCN)NC(=O)[C@@H](Cc2c[nH]c3ccccc23)NC(=O)[C@H](Cc2ccc(O)cc2)NC(=O)CCSSC(C(=O)N[C@@H](Cc2ccccc2)C(N)=O)NC1=O (some centres undefined) [CAS_117580-24-2] ([Mpa]Y[dW]KV[X1]F-NH2; disulfide 1-6)
< 5.00 | 11.00 | 6.80 | 7.37 | 6.00 | CC(C)[C@H](NC(=O)[C@H](CCCCN)NC(=O)[C@@H](Cc1c[nH]c2ccccc12)NC(=O)[C@H](Cc1ccc(O)cc1)NC(=O)[C@H](Cc1ccccc1)NC(=O)[C@H](N)Cc1ccccc1)C(=O)N[C@@H](Cc1ccccc1)C(=O)N[C@H](Cc1ccc2ccccc2c1)C(N)=O [CAS_150155-61-6] (H-[dF]FY[dW]KVF[d2Nal]-NH2)
9.00 | 9.22 | 8.85 |  | 7.00 | C[C@@H](O)[C@@H]1NC(=O)[C@H](Cc2ccc(O)cc2)NC(=O)[C@H]([C@@H](C)O)NC(=O)[C@H](CCCCN)NC(=O)[C@H](Cc2c[nH]c3ccccc23)NC(=O)[C@H](Cc2ccccc2)NC(=O)[C@H](Cc2ccccc2)NC(=O)[C@H](CC(N)=O)NC(=O)[C@H](CCCCN)NC(=O)CCCCC[C@@H](C(=O)O)NC(=O)[C@H](CO)NC1=O [CGP-23996]
11.00 |  |  |  |  | C[C@@H](O)[C@H](NC(=O)[C@@H]1CSSC[C@H](NC(=O)[C@H](N)Cc2ccc3ccccc3c2)C(=O)N[C@@H](Cc2ccc(O)cc2)C(=O)N[C@H](Cc2c[nH]c3ccccc23)C(=O)N[C@@H](CCCCN)C(=O)N[C@@H]([C@@H](C)O)C(=O)N1)C(N)=O [D-Nal-c[Cys-Tyr-D-Trp-Lys-Thr-Cys]-Thr-NH2]
11.00 |  | 8.74 |  |  | C[C@@H](O)[C@@H]1NC(=O)[C@H](Cc2ccccc2)NC(=O)[C@H]([C@@H](C)O)NC(=O)[C@H](CCCCN)NC(=O)[C@@H](Cc2c[nH]c3ccccc23)NC(=O)[C@H](Cc2ccccc2)NC(=O)[C@H](Cc2ccc(Cl)cc2)NC(=O)[C@H](CC(N)=O)NC(=O)[C@H](CCCCN)NC(=O)[C@@H](N)CSSC[C@@H](C(=O)O)NC(=O)[C@H](CO)NC1=O [EC5-21] (H-CKN[Phe(4-Cl)]F[dW]KTFTSC-OH; disulfide 1-12)
